Measured values published in patent US20130040998A1, “FLUORINATED HDAC INHIBITORS AND USES THEREOF” (Dana-Farber Cancer Institute, Inc., priority 2010, published 2013).

Key:
[1] = test system: class IIa HDACs (HDAC4, HDAC5, HDAC7, HDAC9); assay: HDAC inhibition assay, class IIa HDAC enzymes; type: biochemical, human
Method: (§1) The inventive compounds may be tested in any assay for HDAC inhibitor activity. In certain embodiments, the assay for determining the inhibitory effect of an inventive compound on an HDAC protein comprising: incubating the HDAC protein with a substrate of formula: […]
(§2) in the presence of an inventive compound; and determining the activity of the HDAC protein by monitoring the release of 7-amino-4-methylcoumarin after cleavage by trypsin.
(§3) In certain embodiments, the assay is performed in water. In other embodiments, the assay is performed in an organic solvent. In still other embodiments, the assay in performed in a buffer. In certain embodiments, the buffer is an assay buffer. In other embodiments, the assay buffer comprises HEPES, KCl, Tween-20, BSA, and TCEP. In further embodiments, the assay buffer is […] HEPES, 100 mM KCl, 0.001% Tween-20, 0.05% BSA, 200 µM TCEP, pH 7.4. In certain embodiments, the assay is performed at approximately pH 5.0-6.0. In certain embodiments, the assay is performed at approximately pH 5.0-9.0. In certain embodiments, the assay is performed at a pH optimum for an HDAC enzyme to function.

HDAC1-3 = assay: HDAC inhibition assay, HDAC1-3; type: biochemical, human; conditions: fluorinated MAZ1702 versus MAZ1704
Method: as §1, §2, §3

[2] = difference versus unsubstituted cinnamic hydroxamic acid; Dessolin et al. 1970; cited from earlier work

SMILES	affinity for class IIa HDAC enzymes compared to MAZ1704 ([1]; FIG. 2 legend, in words)	binds fold better to class IIa enzymes ([1]; fluorinated MAZ1702 versus MAZ1704 (FIG. 2))	fold increase in activity for HDAC1-3 (HDAC1-3)	pKa, units lower than unsubstituted cinammic hydroxamic acid [2]	fold increase in activity for class IIa enzymes ([1]; direct comparison with cinnamic hydroxamic acid)
O=C(NO)/C(F)=C/c1ccccc1 [MAZ1702]	significantly increased affinity	3.5-5 fold	1-1.4 fold		
O=C(NO)C(F)=Cc1ccccc1 [α-fluoro cinnamic hydroxamic acid]				approximately 0.9 units	5-10 fold
